In experiment [1] the test system is HepG2 Trib1 mRNA qPCR, 24 h. Briefly: activators of Trib1 transcript expression – cell-based, qPCR, dose response (AID 1053138). Background: Real-time PCR tracks product formation cycle by cycle.
Test in experiment [2]: as above
The conditions noted are these: HepG2 Trib1 mRNA qPCR, 24 h; measured here: Trib1 mRNA max fold induction; stronger effect = higher value.

Structures are written as SMILES. The source made the active and inactive calls. The rule behind the calls is not given here.

Take `CN1C(=O)c2cc(NC(=O)c3ccc(C(F)(F)F)cc3)ccc2OC[C@@H]2O[C@H](CC(=O)NC3Cc4ccccc4C3)CC[C@@H]21`: the AC50 in experiment [1] is 310 nM. The compound further registered a fold change in experiment [2] of 3.7.
The like results for `CN1C(=O)c2cc(NC(=O)c3ccc(C(F)(F)F)cc3)ccc2OC[C@@H]2O[C@@H](CC(=O)NC3Cc4ccccc4C3)CC[C@@H]21` were, in that order, 1700 nM and 2.7.
The like results for `CN1C(=O)c2cc(NC(=O)c3ccc(C(F)(F)F)cc3)ccc2OC[C@@H]2O[C@H](CC(=O)NC3Cc4ccccc4C3)CC[C@H]21` were, in that order, > 25000 nM (inactive) and 1.3.

Broadly, the AC50 is the concentration giving half of the maximal activity seen.
